Molecules are shown by their SMILES.

For 88 compounds, melting point results are on record in a melting point compilation (Tetko et al.; mined from patent text by program, amines drawn as free bases though some values may be those of a salt).

As for `CNC(=O)c1ccc(N(CC(=O)OC(C)(C)C)C(=O)OC(C)(C)C)cc1`, the melting point fell in the range of 164 to 166 °C. For `CCCOc1ccc(S(C)(=O)=O)cc1-c1nc2c(CC)nn(C[C@@H]3CCCN3C)c2c(=O)[nH]1` the value was 211 to 215 °C; for `Cc1nc(-n2cnn(Cc3ccc(F)cc3)c2=O)sc1C(=O)NCc1cn(C)cn1`, 225 to 226 °C. On to `N#CC(=C1Nc2ccccc2O1)S(=O)(=O)c1ccccc1`, for which the melting point lay in the range of 215 to 218 °C. Turning to `O=C(O)c1cc(-n2nc3n(c2=O)CCCC3)c(F)cc1Cl`, the melting point is 91 to 94 °C. With `C/C=C/C(=O)NCCc1ccc(F)cc1`, the melting point was in the range of 121 to 123 °C. The compound `Cc1cc(C)nc(C(=O)n2cc(CC(=O)O)c3ccc(Cl)cc32)c1` showed a melting point of 219 to 220 °C.

`CCn1nc(OCCCc2ccc(OCCOC(C)C)cc2Oc2ncc(C(F)(F)F)cc2Cl)cc1CCC(=O)O` registered a melting point of 130 to 132 °C. `CC(C)(C)c1ccc(-n2cnnc2C(F)(F)F)cc1` displayed a melting point of 134 °C.

As for `O=P(O)(O)CCCCCCCCCCCCCCCCCCCCCCC(F)(F)C(F)(F)C(F)(F)C(F)(F)F`, the melting point lay in the range of 106 to 108 °C.

Regarding `COCOc1nn(-c2ccccc2)cc1/C=C/c1csc(-c2ccccc2C(=O)OC)n1`, the melting point is 134 to 135 °C. `O=c1nc(-c2cccc(C(F)(F)F)c2)sc2ccccc12`: the melting point is 115 °C. Compound `CC(C)(C)c1cc(CCC(=O)NCCNc2cccc(Cl)c2C#N)cc(C(C)(C)C)c1O` displayed a melting point of 164 to 167 °C. Next, `O=C(O)Cc1cc(=O)[nH]c2ccccc12`: 213 to 215 °C. As for `COc1ccc(CN(C)CCCc2ccc(NC(=O)c3cccc4c(=O)c5cccc(OC)c5[nH]c34)cc2)cc1OC`, the melting point was found to be 180 °C.

On to `CCOC(=O)c1ccc(N(CC)CCc2ccccc2OCc2ccccc2)cc1`, for which the melting point came to 76 °C.

The compound `NC1CCCCC1C(O)c1ccccc1` (stereo not drawn) had a melting point of 77 to 85 °C. `O=C1Cc2c(Cl)cccc2Sc2cc(F)ccc21` came in with a melting point of 109 to 111 °C. For `COc1cc(OC)c2c(=O)[nH]c(-c3ccc(N4CCC(O)CC4)cc3)nc2n1` the value was 284 to 286 °C; for `COC(=O)n1nc2nc3n(c(=O)c2c1N)CCS3`, 200 to 203 °C; for `COc1cc(-c2nc(N)sc2CCC2CCCCC2)c(OC)cc1Cl`, 110 to 111 °C. `CCCCc1nc2c(N)nc3cccnc3c2n1CCCCNC(=O)CSc1ccncc1`: the melting point was 128 to 129 °C. `CCCCCOc1cc2c(cc1C(=O)Oc1ccc(C(=O)O)cn1)C(C)(C)CCC2(C)C` gave a melting point of 132 to 133 °C.

In the case of `CCCCCCCCOc1ccc(C(=O)Oc2ccc3c(c2)C(C)c2cc(O)ccc2-3)cc1` (stereo not drawn), the melting point was 140 to 143 °C. Next, `Cc1ccc(C(=O)NC(CC(C)C)C(=O)O)c(SSc2cc(C)ccc2C(=O)NC(CC(C)C)C(=O)O)c1` (stereo not drawn): 216 to 218 °C; `N/C(=C1/Sc2ccccc2C1=O)c1ccccc1Br`: 143 to 144 °C.

`CCC1(C)OC(c2ccc(S(C)(=O)=O)cc2)=C(c2ccc(C(C)(C)C)cc2)C1=O` (stereo not drawn): the melting point was 45 °C. `Cn1c(=O)n(CCCCI)c(=O)c2ccccc21` yielded a melting point of 105 to 107 °C. With `O=C(O)c1ccc(CCCC2SCC(=O)N2CCC2(O)CCSCC2)cc1` (stereo not drawn), the melting point fell in the range of 157 to 158 °C. With `Clc1ccc(Nc2nc3ccccc3c3[nH]c(C4CCCC4)nc23)cc1Cl`, the melting point lay in the range of 114 to 115 °C. For `O=C1N=C(N2CCNCC2)SC1=Cc1cccc(-c2cc(F)c(O)c(C34CC5CC(CC(C5)C3)C4)c2)c1` the value was 230 to 233 °C. Take `COC(=O)c1c(-c2ccc(C)cc2)ccc2ccccc12`: the melting point is 109 to 111 °C.

In the case of `CCCCCCOc1nc(N)c2ncn(C3CCCCC3)c2n1`, the melting point is 57 to 60 °C. Compound `Cc1ccc(CC(O)(P(=O)(O)O)P(=O)(O)O)cc1` showed a melting point of 211 to 213 °C.

As for `Fc1cccc(Cc2cncnc2N2CCCC2)c1`, the melting point was in the range of 51 to 54 °C.

Regarding `C#Cc1cccc(N2C(=O)c3ccccc3C2=O)c1`, the melting point lay within 197 to 198 °C. The compound `COc1ccnc(OC)c1CON=C(C)c1cc(C)cc(C)n1` showed a melting point of 114 to 116 °C. For `CCCCCCC(C)(C)c1ccc(C2CCCC(=O)C2)c(O)c1` (stereo not drawn) the value was 87 °C; for `C=C(Br)Cc1cc2c(C)cc(=O)oc2c(C)c1O`, 154 to 161 °C; for `O=C(Cl)c1cn(CCCCl)c(=O)c2cc(Cl)ccc12`, 125 °C. Take `CCOC(=O)CC(=O)Nc1cccc(F)c1CO`: the melting point was found to be 91 °C. For the compound `Cc1ccc(OCc2sccc2S(=O)(=O)Nc2onc(C)c2Br)cc1`, the melting point was 128 to 130 °C. The compound `CCN(CC)CCN(C)CCC1CCCCN1C(=O)N1c2ccccc2NC(=O)c2csc(C)c21` (stereo not drawn) displayed a melting point of 131 to 133 °C. Take `Cc1c(CCc2ccc3nc(N)oc3c2)nc2cc(CN)ccn12`: the melting point lay within 218 to 221 °C. `N#CCCN(N)c1cc2ccccc2[nH]1` showed a melting point of 120 to 122 °C. As to `CC1CCN(c2cc(F)cc(C(=O)Nc3ccc(Oc4ccnc(NC5CCCC5)n4)c4ccccc34)c2)CC1`, the melting point fell in the range of 88 to 90 °C. `CCOC(=O)C(=C1SCSCS1)c1ccc(Oc2ccccc2)cc1` came in with a melting point of 134 to 135 °C. Next, `Cc1cc(=O)n(O)c(C)c1Cc1ccccc1`: 165 °C; `CCOC(=O)C(=O)Cc1c[nH]c2ccc(OCc3ccccc3)cc12`: 169 to 170 °C; `CC(C)(C(=O)O)c1cc(C(=O)c2ccccc2)ccc1O`: 207 °C. The compound `Nc1nc2ccccc2c2c1ncn2CC1CCCCO1` (stereo not drawn) registered a melting point of 206 to 210 °C. For `CC(=O)OCC1OC(OC2C(COC(C)=O)OC(Sc3ccc(N)cc3)C(OC(C)=O)C2OC(C)=O)C(OC(C)=O)C(OC(C)=O)C1OC(C)=O` (stereo not drawn) the value was 145 to 148 °C; for `CCOC(=O)c1ccc(NCCCCc2cccs2)cc1`, 63 to 65 °C; for `CC(C)NC(=O)c1ccc(CCN2CC=C(c3c[nH]c(-c4ccc(F)cc4)c3-c3ccncc3)CC2)cc1`, 178 to 180 °C. In turn, `Oc1ccc(-c2nc(Br)c[nH]2)cc1Cl` displayed a melting point of 225 to 227 °C.

With `O=C(NCc1ccc(Cl)cc1)c1cn(CCN2CCCC2)c2ccc(C#CCO)cc2c1=O`, the melting point was in the range of 189 to 192 °C. Regarding `O=C1CC[C@H](COC(c2ccccc2)(c2ccccc2)c2ccccc2)N1CCCc1ccccc1`, the melting point is 109 °C. Next, `OC1c2ccc(OCc3ccccc3)cc2OCC1N1CCC(O)(c2ccc(F)cc2)CC1` (stereo not drawn): 194 to 195 °C; `O=C(Nc1cccc(-c2ccnc3c(C(=O)c4cccs4)cnn23)c1)c1ccc(Cl)cc1Cl`: 132 to 134 °C. The compound `O=C1C(=O)c2ccc(-c3ccc(C(F)(F)F)cc3)cc2C2=C1SCC1(CCNCC1)O2` displayed a melting point of 190 to 240 °C. In the case of `CC(C)Oc1ccc(C(=O)N2CCNC2=Nc2c(Cl)cccc2Cl)cc1`, the melting point is 146 to 148 °C. `OCc1ccc(O)c(CO)c1CNCCCCCCOCC1CCCCC1` displayed a melting point of 72 to 74 °C. As for `Cc1oc(-c2ccccc2)nc1COc1ccc(CCCO)cc1`, the melting point was in the range of 70 to 71 °C. `COC(C)=CC(=O)Nc1ccccc1C`: the melting point came to 101 °C. For the compound `O=C1CCC(N2Cc3c(CNC(=O)NC4CCCCC4)cccc3C2=O)C(=O)N1` (stereo not drawn), the melting point is 309 to 311 °C. `CCCCCNc1cccc2c1C(=O)N(C1(C)CCC(=O)NC1=O)C2=O` (stereo not drawn) showed a melting point of 96 to 98 °C. Next, `CCC(=C(c1ccc(O)cc1)c1ccc(O)cc1)c1cccc(-c2c(C)noc2C)c1`: 173 to 174 °C. Regarding `CCCCn1c(=O)n(OCc2ccccc2)c(=O)c2cc(F)c(Cl)nc21`, the melting point was in the range of 147 to 148 °C.

Consider `CCCN(CC1CC1)C(=O)c1c2c(nn1C)N(c1c(C)cc(C)cc1Cl)CCC2`, for which the melting point lay within 121 to 122 °C. For `COc1ccc2c(c1)c1c(n2C(=O)c2ccccc2)CCC(C(=O)O)C1` (stereo not drawn) the value was 216 to 219 °C. In turn, `CC(=O)n1nc(C)c2ccccc21` displayed a melting point of 70 to 71 °C. Turning to `Cc1c(C)c2c(c(C)c1N)CC(C)(CN1CCN(CCc3ccccc3)CC1)O2` (stereo not drawn), the melting point lay within 99 to 100 °C. On to `CC(=O)SCCNc1nc(-c2ccccc2)c2cc(Cl)ccc2n1`, for which the melting point came out at 129 °C. Take `CC(C)CC1CNCCNCCNCCNCCN1` (stereo not drawn): the melting point was 70 to 76 °C. In turn, `CCC1CC(C)(C)Oc2c1cc(C(C)=O)c(O)c2C` (stereo not drawn) displayed a melting point of 92 to 93 °C.

`Cc1cccc(Nc2ccccc2C=NO)c1C` came in with a melting point of 107 to 108 °C.

`CC(=O)Oc1c(C)cc(NC(=O)NC2=C(c3ccccc3)c3ccccc3CS2)cc1C`: the melting point lay within 206 to 208 °C.

For the compound `Cc1nc(N2CCC(Cc3ccc(C(F)(F)F)cc3)C2=O)sc1C(=O)NCc1ccc(F)cc1` (stereo not drawn), the melting point lay in the range of 175 to 176 °C. Turning to `CCOC(=O)c1csc(-c2ccc3c(=O)n(CC(C)C)c(CNC(=O)OCC4c5ccccc5-c5ccccc54)c(-c4ccccc4)c3c2)n1`, the melting point lay in the range of 151 to 152 °C. With `CCOC(=O)Cc1nccc(NC=O)n1`, the melting point was 80 to 93 °C.

For `CCCc1c(OCCCOc2ccc(C(=O)O)cc2)ccc(C(C)=O)c1O`, the melting point fell in the range of 180 to 183 °C. Consider `COC(=O)c1[nH]c2c(C)ccc(C)c2c1-c1nc2ccccc2s1`, for which the melting point was in the range of 193 to 194 °C.

With `COc1ccc(NC2SC(=O)NC2=O)cc1` (stereo not drawn), the melting point was 180 to 181 °C.

`COc1cc(Nc2nc3cccc(-c4cccc(CNC(C)=O)c4)c3o2)cc(OC)c1OC` gave a melting point of 203 to 204 °C.

Compound `C=CC(=O)Oc1ccc(-c2cccc(F)c2F)cc1` had a melting point of 88.4 to 90 °C. In turn, `CN(C)CCCNc1c(-c2ccccc2)c(=O)[nH]c2cc(Cl)ccc12` came in with a melting point of 177 to 179 °C. `COC(=O)C(=O)c1ccc(OCCOc2ccc3ccccc3c2)c(C)c1`: the melting point lay within 118 to 119 °C.

Take `CC(=O)ONC(=N)c1ccc(-c2ccc(-c3ccc(C(=N)NOC(C)=O)cc3C)o2)nc1`: the melting point was 226 to 229 °C.
